Test system: mouse plasma stability, LC-MS/MS, 48 h
Assay: Inhibitors of 12-hLO: Mouse Plasma Stability Profiling
Conditions: at 2 µM; stronger effect = higher value
Description: Assay Provider: Holman, T.R., University of California, Santa Cruz Grant #: MH08128301 Screening Center PI: Austin, C.P. Screening Center: NIH Chemical Genomics Center [NCGC] Human lipoxygenase 12hLO is a member of the closely related lipoxygenase family of enzymes which catalyze the site-specific oxidation of arachidonic acid to various hormone precursor molecules and as such is a candidate for drug development in a variety of disease areas, such as cancer and inflammation. After qHTS, hits were confirmed in follow-up assays, and leads were optimized through SAR. The resulting lead compound was further characterized through a battery ADME-Tox experiments, and this assay describes its stability in mouse plasma. The stability of the lead compound in […] is tested because this parameter has a significant impact on many ADME-concerned properties of drugs, such as uptake, distribution, transport, and eventually bioavailability.
2microM of compound is incubated in PBS buffer at pH 7; the reference compound is procaine. Compounds are incubated at 37 deg C for the pre-determined time periods and the when aliquots are removed. Samples are analyzed with LC-MS/MS.

CC(=O)NC(c1cccs1)c1cc(Br)c2cccnc2c1O (stereo unspecified)
percent remaining: 98.3%

Source: PubChem BioAssay AID504610 (National Center for Advancing Translational Sciences (NCATS), 2011)
